“And” between values parts separate entries of the source, which are not always exact repeats. Equal values may be shown once. Inconclusive results and toxic doses are left out. Rule for the calls: active = survival T/C of 150% or more; inactive = T/C below 125% in these data.
Test system: P388 leukemia ip, CD2F1 mice, survival T/C
Experiment: NCI In Vivo Anticancer Drug Screen. Data for tumor model P388 Leukemia (intraperitoneal) in CD2F1 (CDF1) mice
Details: endpoint: median survival time, higher = longer survival
Method in brief: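 Mice carrying the transplanted tumor received test compound or vehicle. Survival was recorded in each group, and the value is the treated-group measurement divided by that of the vehicle-treated control group.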

[1] = dose: 50.0 mg/kg/injection, schedule: Q01DX009 (ip), vehicle: saline
[2] = dose: 100.0 mg/kg/injection, schedule: Q01DX009 (ip), vehicle: saline
[3] = dose: 200.0 mg/kg/injection, schedule: Q01DX009 (ip), vehicle: saline
[4] = dose: 100.0 mg/kg/injection, schedule: Q04DX003 (ip), vehicle: Klucel (hydroxypropylcellulose) (HPC)
[5] = dose: 200.0 mg/kg/injection, schedule: Q04DX003 (ip), vehicle: Klucel (hydroxypropylcellulose) (HPC)
[6] = dose: 400.0 mg/kg/injection, schedule: Q04DX003 (ip), vehicle: Klucel (hydroxypropylcellulose) (HPC)
[7] = dose: 60.0 mg/kg/injection, schedule: Q01DX005 (ip), vehicle: Klucel (hydroxypropylcellulose) (HPC)
[8] = dose: 120.0 mg/kg/injection, schedule: Q01DX005 (ip), vehicle: Klucel (hydroxypropylcellulose) (HPC)
[9] = dose: 240.0 mg/kg/injection, schedule: Q01DX005 (ip), vehicle: Klucel (hydroxypropylcellulose) (HPC)
[10] = dose: 50.0 mg/kg/injection, schedule: Q01DX005 (ip), vehicle: Klucel (hydroxypropylcellulose) (HPC)
[11] = dose: 100.0 mg/kg/injection, schedule: Q01DX005 (ip), vehicle: Klucel (hydroxypropylcellulose) (HPC)
[12] = dose: 200.0 mg/kg/injection, schedule: Q01DX005 (ip), vehicle: Klucel (hydroxypropylcellulose) (HPC)
[13] = dose: 400.0 mg/kg/injection, schedule: Q01DX009 (ip), vehicle: saline
[14] = dose: 25.0 mg/kg/injection, schedule: Q01DX009 (ip), vehicle: saline with Tween-80
[15] = dose: 50.0 mg/kg/injection, schedule: Q01DX009 (ip), vehicle: saline with Tween-80
[16] = dose: 100.0 mg/kg/injection, schedule: Q01DX009 (ip), vehicle: saline with Tween-80
[17] = dose: 200.0 mg/kg/injection, schedule: Q01DX009 (ip), vehicle: saline with Tween-80

Measured: T/C

COC(=O)c1ccnc(-c2cc(C(=O)OC)ccn2)c1
inactive: [1] 99 % of control | [2] 93 % of control | [3] 92 % of control

CCN(CC)CC1(CC(=O)N2c3ccccc3Sc3ccccc32)COC1
inactive: [1] 107 % of control | [2] 100 % of control | [3] 105 % of control

CCC(C)C1C(=O)OC(C(Cl)(Cl)Cl)N1Cc1ccc(OC)cc1OC (configuration not stated)
inactive: [4] 109 % of control | [5] 107 % of control | [6] 104 % of control

CCOC(=O)CCC(=O)Oc1ccc2c(c1OC(=O)CCC(=O)OCC)C(=O)c1ccccc1C2=O
inactive: [7] 97 % of control | [8] 97 % of control | [9] 95 % of control

Cc1ccc(S(=O)(=O)ON=C2CC(c3ccccc3)N(C)C(c3ccccc3)C2)cc1 (configuration not stated)
inactive: [10] 116 % of control and 101 % of control | [11] 107 % of control and 104 % of control | [12] 100 % of control

COC1=C(OC)C(=O)C(SCCCCCCC2CCCCC2)=C(Cl)C1=O
inactive: dose: 0.2 mg/kg/injection, schedule: Q01DX009 (ip), vehicle: saline 95 % of control | dose: 0.4 mg/kg/injection, schedule: Q01DX009 (ip), vehicle: saline 101 % of control | dose: 0.8 mg/kg/injection, schedule: Q01DX009 (ip), vehicle: saline 101 % of control | dose: 1.6 mg/kg/injection, schedule: Q01DX009 (ip), vehicle: saline 102 % of control | dose: 3.13 mg/kg/injection, schedule: Q01DX009 (ip), vehicle: saline 105 % of control | dose: 6.25 mg/kg/injection, schedule: Q01DX009 (ip), vehicle: saline 106 % of control

COc1ccc(O)c2c1C(=O)C=CC2=O
inactive: dose: 0.4 mg/kg/injection, schedule: Q01DX001 (ip), vehicle: saline with Tween-80 104 % of control | dose: 0.8 mg/kg/injection, schedule: Q01DX001 (ip), vehicle: saline with Tween-80 96 % of control | dose: 1.56 mg/kg/injection, schedule: Q01DX001 (ip), vehicle: saline with Tween-80 105 % of control | dose: 3.13 mg/kg/injection, schedule: Q01DX001 (ip), vehicle: saline with Tween-80 102 % of control

O=C(NC1CCCCC1)Oc1ccc[nH]c1=O
inactive: dose: 25.0 mg/kg/injection, schedule: Q01DX009 (ip), vehicle: saline 92 % of control and 93 % of control | dose: 25.0 mg/kg/injection, schedule: Q01DX009 (sc), vehicle: saline with Tween-80 101 % of control and 109 % of control | [1] 102 % of control and 104 % of control | dose: 50.0 mg/kg/injection, schedule: Q01DX009 (sc), vehicle: saline with Tween-80 106 % of control and 107 % of control | [2] 105 % of control and 98 % of control | dose: 100.0 mg/kg/injection, schedule: Q01DX009 (sc), vehicle: saline with Tween-80 102 % of control and 117 % of control | [3] 102 % of control and 105 % of control | dose: 200.0 mg/kg/injection, schedule: Q01DX009 (sc), vehicle: saline with Tween-80 108 % of control and 111 % of control | [13] 116 % of control and 118 % of control | dose: 400.0 mg/kg/injection, schedule: Q01DX009 (sc), vehicle: saline with Tween-80 104 % of control and 107 % of control | dose: 600.0 mg/kg/injection, schedule: Q01DX009 (sc), vehicle: saline with Tween-80 102 % of control and 113 % of control

COc1cc2c(cc1OC)[C@H]1O[C@H](OC)c3c(ccc4c3OCO4)[C@H]1N(C)CC2
inactive: dose: 7.25 mg/kg/injection, schedule: Q01DX005 (ip), vehicle: Klucel (hydroxypropylcellulose) (HPC) 106 % of control | dose: 14.5 mg/kg/injection, schedule: Q01DX005 (ip), vehicle: Klucel (hydroxypropylcellulose) (HPC) 100 % of control | dose: 29.0 mg/kg/injection, schedule: Q01DX005 (ip), vehicle: Klucel (hydroxypropylcellulose) (HPC) 106 % of control | dose: 58.0 mg/kg/injection, schedule: Q01DX005 (ip), vehicle: Klucel (hydroxypropylcellulose) (HPC) 96 % of control

COc1ccc2[nH]cc(CCN(C)C)c2c1
inactive: dose: 12.5 mg/kg/injection, schedule: Q01DX009 (ip), vehicle: saline with Tween-80 115 % of control | dose: 16.5 mg/kg/injection, schedule: Q01DX009 (ip), vehicle: saline with Tween-80 113 % of control | [14] 104 % of control | dose: 37.5 mg/kg/injection, schedule: Q01DX009 (ip), vehicle: saline with Tween-80 109 % of control | [15] 115 % of control

CC1(C(Cl)(Cl)Cl)C=C(Cl)C(=O)C(Cl)=C1
inactive: dose: 25.0 mg/kg/injection, schedule: Q01DX005 (ip), vehicle: Klucel (hydroxypropylcellulose) (HPC) 99 % of control | [10] 98 % of control and 92 % of control | [11] 102 % of control | [12] 92 % of control

CC(=O)OCC1C(OC(C)=O)C(OC(C)=O)C(COC(C)=O)N1C(C)=O (configuration not stated)
inactive: [4] 90 % of control | [5] 90 % of control | [6] 87 % of control

COC(=O)C(OC)(OC)C(O)C(C)C (configuration not stated)
inactive: dose: 60.0 mg/kg/injection, schedule: Q01DX005 (ip), vehicle: saline 104 % of control | dose: 120.0 mg/kg/injection, schedule: Q01DX005 (ip), vehicle: saline 103 % of control | dose: 240.0 mg/kg/injection, schedule: Q01DX005 (ip), vehicle: saline 103 % of control

Cc1c(-c2ccccc2)nc(N(C)C)oc1=O
inactive: dose: 60.0 mg/kg/injection, schedule: Q01DX005 (ip), vehicle: saline with Tween-80 105 % of control | dose: 120.0 mg/kg/injection, schedule: Q01DX005 (ip), vehicle: saline with Tween-80 101 % of control | dose: 240.0 mg/kg/injection, schedule: Q01DX005 (ip), vehicle: saline with Tween-80 100 % of control

CC1OC(=O)C(=O)/C1=C1/CC(C)(C)N(c2ccccc2)N1 (configuration not stated)
inactive: [14] 104 % of control and 91 % of control | [15] 107 % of control and 108 % of control and 90 % of control | [16] 90 % of control and 96 % of control | [17] 88 % of control and 92 % of control

CC(=O)C1(C)CC=CCC1C(=O)O (configuration not stated)
inactive: [2] 100 % of control | [3] 100 % of control | [13] 100 % of control

O=[N+]([O-])c1cccc(/C=C/C=C/c2ccc(Cl)c(S(=O)(=O)F)c2)c1
inactive: [16] 86 % of control | [17] 86 % of control | dose: 400.0 mg/kg/injection, schedule: Q01DX009 (ip), vehicle: saline with Tween-80 86 % of control

Nc1nc(/C=C\c2ccccc2)cc(-c2cc(/C=C\c3ccccc3)nc(N)n2)n1
inactive: dose: 30.0 mg/kg/injection, schedule: Q01DX005 (ip), vehicle: Klucel (hydroxypropylcellulose) (HPC) 97 % of control | [7] 90 % of control and 94 % of control | [8] 97 % of control | [9] 95 % of control

Reference: PubChem BioAssay AID330 (DTP/NCI, 2004)
